Measurements: patent publication US7141561B2, “Substituted diaryl heterocycles, process for their preparation and their use as medicaments” (Sanofi-Aventis Deutschland GmbH, priority 2002, dated 2006)

System: female NMRI mice
Assay: Anorectic effect: cumulative condensed milk consumption of mice
Format: in vivo
Conditions: oral dose 30 mg/kg by gavage
Protocol: The anorectic effect was tested on female NMRI mice. After withdrawal of food for 17 hours, the test compound was administered by gavage. The animals were housed singly with free access to drinking water and were offered condensed milk 30 minutes after administration of the compound. Condensed milk consumption was determined every half hour for 7 hours, and the general wellbeing of the animals was observed. The measured milk consumption was compared with the vehicle-treated control animals.
Table 1: Anorectic effect measured as the reduction in the cumulative milk consumption of treated compared with control animals.

SMILES: CN(C)CCOc1ccc(-n2ccn(-c3ccc(Oc4ccccc4)cc3)c2=O)cc1 [Example 1, 1-[4-(2-Dimethylaminoethoxy)phenyl]-3-(4-phenoxyphenyl)-1,3-dihydroimidazol-2-one]
- cumulative milk consumption of the treated animals (female NMRI mice after 17 hours food withdrawal, N=5, consumption determined for 7 hours): 5/1.7 ml
- Reduction in the cumulative milk consumption as % of the control (female NMRI mice, compared with vehicle-treated control animals): 58%
